These results are taken from paper PMC7049619 (Acta Pharmaceutica Sinica. B, 2019).

For one data set, the system named is HIV-1IIIB. The experiment in a line: Anti-HIV-1 activity. As to conditions: for SI (selectivity index): ratio CC50/EC50, C8166 cells, Table 1; for times more potent than NVP: C8166, Table 1 EC50. The data set is classed as cell-based.
Data set [1] can be described thus: Cytotoxicity in C8166 cells by MTT method. As to conditions: human. For orientation: Tetrazolium dyes change colour on reduction, which living cells bring about.
In data set [2] the test system is K103N/Y181C double mutant HIV-1 strain. As to conditions: cited from earlier work.
A further data set concerns HIV-1Ba-L. The data set can be described thus: Anti-HIV-1Ba-L activity, luciferase gene expression assay in TZM-bl cells. Format: cell-based. As to conditions: Human immunodeficiency virus 1, TZM-b1.
Data set [3] is described as follows: Cytotoxicity in TZM-bl cells. Format: cell-based. As to conditions: human.
For another data set, the system named is HIV-1TC-1. Format: cell-based. The note with it: Human immunodeficiency virus 1, PBMC, HIV-1TC-1, PBMC; Table 2.
The next data set relates to HIV-1WAN. Format: cell-based. The note with it: Human immunodeficiency virus 1, PBMC.
A short description of a further data set: Cytotoxicity in PBMC. The data set is classed as cell-based. The note with it: human, PBMC (peripheral blood mononuclear cells).
The next data set concerns HIV-1_74V. The data set can be described thus: Anti-HIV-1 activity against resistant strain HIV-1_74V in C8166 cells. The data set is classed as cell-based. As to conditions: Human immunodeficiency virus 1, C8166.
Another data set concerns HIV-1RF/V82F/184V. The experiment in a line: Anti-HIV-1 activity against resistant strain HIV-1RF/V82F/184V in C8166 cells. As to conditions: Human immunodeficiency virus 1, C8166. Format: cell-based.
In a further data set the test system is HIV-1A17 (K103N + Y181C). The experiment in a line: Anti-HIV-1 activity against resistant strain HIV-1A17. The data set is classed as cell-based. As to conditions: Human immunodeficiency virus 1, C8166.
A further data set addresses recombinant HIV-1 RT (Human immunodeficiency virus type 1 group M subtype B, UniProt P04585). The data set can be described thus: Enzymatic recombinant HIV-1 RT activity assay. The data set is classed as biochemical.
Data set [4] deals with HIV-1 laboratory adapted strains and primary isolated strains. The data set is classed as cell-based. The note with it: HIV-1IIIB, HIV-1Ba-L and HIV-1TC-1; Table 2 EC50.
A further data set is described as follows: in vivo. As to conditions: male, Sprague-Dawley, rat, plasma.

Several values for one entry are separate records, joined by “and”; a condition that tells them apart may be missing. Equal entries are not always repeated.

What is called CC50 is the concentration that lowers cell viability or growth by half. A higher CC50 goes with better tolerance by the cells. Regarding `Cc1cn([C@H]2C[C@H](N=[N+]=[N-])[C@@H](CO)O2)c(=O)[nH]c1=O` [AZT, zidovudine, reference compound], the “SI (selectivity index)” value in the data set on HIV-1IIIB is >22,472. Further, the 50% cytotoxic concentration (CC50) at 3 days in data set [1] is above 200000 nM.
In general, EC50 refers to the concentration giving half of the maximal effect. For the compound `Cc1cc(C#N)cc(C)c1Oc1nc(Nc2ccc(C#N)cc2)nc(N)c1Br` [ETR, etravirine, reference compound], the “SI (selectivity index)” value in the data set with HIV-1IIIB is recorded as 19,628. Also, in data set [2], the EC50 is 50 nM. It took 27500 ± 5690 nM to reach half-maximal cytotoxicity in data set [1] (CC50 at 3 days).
Consider `CCc1c(CC2CCCCC2)nc(SCc2cc(-c3ccccc3)[nH]n2)[nH]c1=O` [I-01, 6-(Cyclohexylmethyl)-5-ethyl-2-(((5-phenyl-1H-pyrazol-3-yl)methyl)thio)pyrimidin-4(3H)-one], for which the “times more potent than NVP” value with HIV-1IIIB is “about 10 times”.
Regarding `CCc1c(CC2CCCCC2)nc(SCc2cc(-c3cccc(C)c3)[nH]n2)[nH]c1=O` [I-02, 6-(Cyclohexylmethyl)-5-ethyl-2-(((5-(m-tolyl)-1H-pyrazol-3-yl)methyl)thio)pyrimidin-4(3H)-one], the “SI (selectivity index)” value in the data set with HIV-1IIIB was determined as 1120. This compound displayed a 50% cytotoxic concentration (CC50) at 3 days in data set [1] of 82800 ± 2200 nM.
On the same counts, the results for `CCc1c(CC2CCCCC2)nc(SCc2cc(-c3ccc(C)cc3)[nH]n2)[nH]c1=O` [I-07, 6-(Cyclohexylmethyl)-5-ethyl-2-(((5-(p-tolyl)-1H-pyrazol-3-yl)methyl)thio)pyrimidin-4(3H)-one] are 1748 and 91400 ± 1900 nM.
In general, IC50 refers to the point on the concentration scale where inhibition reaches its midpoint. As usually defined, the AUC(0-inf) is the area under the concentration-time curve extrapolated to infinity. Lower therefore signals low exposure. A word on the AUC(0-t): it is the area under the concentration-time curve up to a stated or last time point. Low values mean less exposure, high ones more exposure. By Cmax is commonly meant the highest concentration seen after dosing. For orientation: MRT inf means a mean duration of stay, worked out from the concentration-time curve. For orientation: Vd means the apparent volume that relates the amount in the body to the concentration in plasma or blood. What is called clearance is the volume of plasma or blood freed of the substance per unit of time. High values mean efficient removal, low ones inefficient removal. The half-life is the time in which the quantity being followed falls by half. Low values mean rapid decline, high ones slow decline. The term bioavailability denotes the share of a dose that reaches the circulation, judged against a reference dose that is usually intravenous. Read a high bioavailability as good availability. The CL/F is the apparent clearance, not corrected for the fraction that reaches the circulation. One may read the MRT as a mean duration of stay, worked out from the concentration-time curve. What is called Tmax is the time at which the peak concentration occurs. For the compound `CCc1c(CC2CCCCC2)nc(SCc2cc(-c3ccc(O)cc3)[nH]n2)[nH]c1=O` [I-11, 6-(Cyclohexylmethyl)-5-ethyl-2-(((5-(4-hydroxyphenyl)-1H-pyrazol-3-yl)methyl)thio)pyrimidin-4(3H)-one], in the data set on HIV-1IIIB, the “times more potent than NVP” value was “about 10 times”. In addition, in the data set with HIV-1Ba-L, the EC50 was 48.5 ± 6.8 nM. Besides, the 50% cytotoxic concentration (CC50) at 3 days in [3] stood at 77100 ± 3680 nM. Besides, the midpoint of the response in the data set on HIV-1TC-1, the EC50, lay at 14.5 ± 0.1 nM. The compound further gave an EC50 in the data set with HIV-1WAN of 56.6 ± 2.4 nM. It took 46800 ± 5200 nM to reach half-maximal cytotoxicity in the data set “Cytotoxicity in PBMC” (CC50). The compound further showed an EC50 with HIV-1_74V of 46.2 ± 23.7 nM. In addition, the EC50 in the data set on HIV-1RF/V82F/184V turned out to be 54.1 ± 23.1 nM. Moreover, the half-maximal effective concentration (EC50) with HIV-1A17 (K103N + Y181C) was found to be 2770 ± 820 nM. In addition, the 50% inhibitory concentration (IC50) at recombinant HIV-1 RT came to 1090 ± 590 nM. In data set [4], the “times more potent than NVP” value is given as 5–14 times. Also, in the data set “in vivo” (iv, 1 mg/kg), the area under the curve AUC(0-inf) turned out to be 2630 ng·h/mL, the AUC(0-t) was found to be 2600 ng·h/mL, the Cmax is 7180 ng/mL and the MRT inf came out at 33.2 min. In the data set “in vivo” (iv, 1 mg/kg), this compound gave a volume of distribution (Vd) of 0.213 L/kg, a clearance of 6.4 mL/min/kg and a half-life of 72 min. This compound came in with a bioavailability in the data set “in vivo” (oral, 5 mg/kg) of 10.4%. In the data set “in vivo” (po, 5 mg/kg), the total exposure AUC(0-inf) amounted to 1370 ng·h/mL; the AUC(0-t) was determined as 1300 ng·h/mL; the CL/F was 63.8 mL/min/kg; the Cmax is 1.54 µM and 654 ng/mL. For the same compound, in the data set “in vivo” (po, 5 mg/kg), the MRT was 33.2 min, the Tmax was found to be 30 min and the half-life is 150 min.
`CCc1c(CC2CCCCC2)nc(SCc2cc(-c3ccc(SC)cc3)[nH]n2)[nH]c1=O` [I-12, 6-(Cyclohexylmethyl)-5-ethyl-2-(((5-(4-(methylthio)phenyl)-1H-pyrazol-3-yl)methyl)thio)pyrimidin-4(3H)-one]: the concentration for a half-maximal effect (EC50) in the data set on HIV-1Ba-L was 193 ± 26.1 nM; in the data set on HIV-1TC-1, 55.4 ± 11.2 nM; with HIV-1WAN it was 165 nM; in the data set with HIV-1_74V, 88.1 ± 17.9 nM; with HIV-1RF/V82F/184V, 219 ± 46.5 nM; with HIV-1A17 (K103N + Y181C), 4870 ± 2710 nM. Further, the half-maximal cytotoxic concentration (CC50) at 3 days in [3] was above 200000 nM. In the data set “Cytotoxicity in PBMC”, this compound registered a 50% cytotoxic concentration (CC50) above 200000 nM. Besides, the concentration for half-maximal inhibition (IC50) on recombinant HIV-1 RT amounted to 2270 ± 120 nM.
Turning to `CCc1c(CC2CCCCC2)nc(SCc2n[nH]c(-c3ccc(Cl)c(Cl)c3)c2Cl)[nH]c1=O` [I-32, 2-(((4-Chloro-5-(3,4-dichlorophenyl)-1H-pyrazol-3-yl)methyl)thio)-6-(cyclohexylmethyl)-5-ethyl-pyrimidin-4(3H)-one], the “SI (selectivity index)” value in the data set with HIV-1IIIB is 544. The compound also yielded a CC50 at 3 days in data set [1] of 190000 ± 13900 nM.
Regarding `O=c1cc(CC2CCCCC2)nc(SCc2cc(-c3ccccc3)[nH]n2)[nH]1` [I-38, 6-(Cyclohexylmethyl)-2-(((5-phenyl-1H-pyrazol-3-yl)methyl)thio)pyrimidin-4(3H)-one], in the data set on HIV-1IIIB, the “SI (selectivity index)” value worked out at 16. Further, in data set [1], the CC50 at 3 days was 79100 ± 5340 nM.
Consider `Cc1ccnc2c1NC(=O)c1cccnc1N2C1CC1` [NVP, nevirapine, reference compound], for which the EC50 in the data set with HIV-1Ba-L came out at 166 ± 46.5 nM; with HIV-1TC-1, 199 ± 48.7 nM; in the data set with HIV-1WAN, 77 ± 19.3 nM; in the data set with HIV-1_74V it was 76.8 ± 19.3 nM; with HIV-1RF/V82F/184V it was 61.4 ± 8.5 nM; with HIV-1A17 (K103N + Y181C), 20200 ± 3100 nM. The compound also had a half-maximal cytotoxic concentration (CC50) at 3 days in [3] above 200000 nM. Moreover, the 50% cytotoxic concentration (CC50) in “Cytotoxicity in PBMC” was above 200000 nM.
